In general, IC50 refers to the midpoint of a concentration-inhibition curve. As usually defined, the Ki is the dissociation constant of the complex between target and ligand, obtained from inhibition or displacement.

Common to all, as to assay type: biochemical
Assay [1] addresses PIM-1 (Homo sapiens, UniProt P11309). The assay is described as follows: Inhibition of PIM-1, standard coupled enzyme assay. The procedure: Reactions were carried out in 100 mM HEPES pH 7.5, 10 mM MgCl2, 25 mM NaCl, 1 mM DTT, 20 μg/ml BSA and 1.5% DMSO. […] Assays were carried out at 30° C. and 50 nM PIM-1.
An assay stock buffer solution was prepared containing all of the reagents listed above, with the exception of PIM-1, DTT, BSA and the test compound of interest. 56 μl of the test reaction was placed in a 384 well plate followed by addition of 1 μl of 2 mM DMSO stock containing the test compound (final compound concentration 30 μM). The plate was preincubated for ˜10 minutes at 30° C. and the reaction initiated by addition of 10 μl of enzyme in DTT and BSA (final concentrations: 50 nM PIM-1, 1 mM DTT, and 20 μg/ml BSA). Rates of reaction were obtained using a BioRad Ultramark plate reader (Hercules, Calif.) over a 5 minute read time at 30° C.

The target in assay [2] is T1, GSK-3β (AA 1-420) (Homo sapiens, UniProt P49841).
T1 construct: GSK-3β (AA 1-420)
T1 sequence (P49841 whole entry, the tested form may be a part): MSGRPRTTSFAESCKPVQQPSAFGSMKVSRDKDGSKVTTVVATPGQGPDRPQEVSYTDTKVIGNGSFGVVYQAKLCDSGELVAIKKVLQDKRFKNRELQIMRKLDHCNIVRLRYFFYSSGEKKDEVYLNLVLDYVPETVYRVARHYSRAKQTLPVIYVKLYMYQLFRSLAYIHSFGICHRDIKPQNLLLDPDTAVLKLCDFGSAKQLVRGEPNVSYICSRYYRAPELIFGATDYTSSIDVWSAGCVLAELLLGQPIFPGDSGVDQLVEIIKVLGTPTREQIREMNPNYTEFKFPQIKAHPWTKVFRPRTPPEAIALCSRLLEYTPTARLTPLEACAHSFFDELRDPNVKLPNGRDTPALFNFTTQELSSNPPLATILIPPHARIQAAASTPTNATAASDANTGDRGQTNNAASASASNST
Nature of the assay: Inhibition of GSK-3, standard coupled enzyme system. Particulars: 20 μM ATP, 300 μM peptide, 20 nM GSK-3β, 30° C. On the procedure: Compounds were screened for their ability to inhibit GSK-3β (AA 1-420) activity using a standard coupled enzyme system (Fox et al. (1998) Protein Sci. 7, 2249). Reactions were carried out in a solution containing 100 mM HEPES (pH 7.5), 10 mM MgCl2, 25 mM NaCl, 300 μM NADH, 1 mM DTT and 1.5% DMSO. Final substrate concentrations in the assay were 20 μM ATP (Sigma Chemicals, St Louis, Mo.) and 300 μM peptide (American Peptide, Sunnyvale, Calif.). Reactions were carried out at 30° C. and 20 nM GSK-3β. Final concentrations of the components of the coupled enzyme system were 2.5 mM phosphoenolpyruvate, 300 μM NADH, 30 μg/ml pyruvate kinase and 10 μg/ml lactate dehydrogenase. An assay stock buffer solution was prepared containing all of the reagents listed above with the exception of ATP and the test compound of interest. The assay stock buffer solution (175 μl) was incubated in a 96 well plate with 5 μl of the test compound of interest at final concentrations spanning 0.002 μM to 30 μM at 30° C. for 10 min. Typically, a 12 point titration was conducted by preparing serial dilutions (from 10 mM compound stocks) with DMSO of the test compounds in daughter plates. The reaction was initiated by the addition of 20 μl of ATP (final concentration 20 μM). Rates of reaction were obtained using a Molecular Devices Spectramax plate reader (Sunnyvale, Calif.) over 10 min at 30° C. The Ki values were determined from the rate data as a function of inhibitor concentration.

The target in assay [3] is T2, human Src kinase (Homo sapiens, UniProt P12931).
T2 construct: full length recombinant human Src kinase (from Upstate Biotechnology, cat. no. 14-117); purchased Upstate Biotechnology 14-117; host or cells: baculo viral cells (baculovirus expression)
T2 sequence (P12931 whole entry): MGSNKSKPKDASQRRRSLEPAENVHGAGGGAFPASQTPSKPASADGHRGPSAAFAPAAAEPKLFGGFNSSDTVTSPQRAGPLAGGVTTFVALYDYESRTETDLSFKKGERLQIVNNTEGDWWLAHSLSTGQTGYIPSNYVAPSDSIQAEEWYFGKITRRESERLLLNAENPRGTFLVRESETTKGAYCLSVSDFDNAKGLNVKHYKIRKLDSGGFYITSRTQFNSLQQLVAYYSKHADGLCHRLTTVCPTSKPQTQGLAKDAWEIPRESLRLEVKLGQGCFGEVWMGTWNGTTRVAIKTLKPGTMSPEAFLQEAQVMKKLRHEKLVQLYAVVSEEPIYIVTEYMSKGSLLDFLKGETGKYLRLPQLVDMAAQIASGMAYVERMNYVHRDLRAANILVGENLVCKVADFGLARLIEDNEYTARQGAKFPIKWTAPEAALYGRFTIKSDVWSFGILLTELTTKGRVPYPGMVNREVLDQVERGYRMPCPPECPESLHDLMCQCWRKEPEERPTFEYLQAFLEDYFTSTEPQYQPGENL
Nature of the assay: Inhibition of SRC, radioactivity-based assay or spectrophotometric assay. Particulars: full length recombinant human Src kinase, poly Glu-Tyr substrate; assay A or B not specified. The procedure:
The compounds are evaluated as inhibitors of human Src kinase using either a radioactivity-based assay or spectrophotometric assay.
Src Inhibition Assay A: Radioactivity-based Assay
The compounds are assayed as inhibitors of full length recombinant human Src kinase (from Upstate Biotechnology, cat. no. 14-117) expressed and purified from baculo viral cells. Src kinase activity is monitored by following the incorporation of ^33P from ATP into the tyrosine of a random poly Glu-Tyr polymer substrate of composition, Glu:Tyr=4:1 (Sigma, cat. no. P-0275). The following are the final concentrations of the assay components: 0.05 M HEPES, pH 7.6, 10 mM MgCl2, 2 mM DTT, 0.25 mg/ml BSA, 10 μM ATP (1-2 μCi ^33P-ATP per reaction), 5 mg/ml poly Glu-Tyr, and 1-2 units of recombinant human Src kinase. In a typical assay, all the reaction components with the exception of ATP are pre-mixed and aliquoted into assay plate wells. Inhibitors dissolved in DMSO are added to the wells to give a final DMSO concentration of 2.5%. The assay plate is incubated at 30° C. for 10 min before initiating the reaction with ^33P-ATP. After 20 min of reaction, the reactions are quenched with 150 μl of 10% trichloroacetic acid (TCA) containing 20 mM Na3PO4. The quenched samples are then transferred to a 96-well filter plate (Whatman, UNI-Filter GF/F Glass Fiber Filter, cat no. 7700-3310) installed on a filter plate vacuum manifold. Filter plates are washed four times with 10% TCA containing 20 mM Na3PO4 and then 4 times with methanol. 200 μl of scintillation fluid is then added to each well. The plates were sealed and the amount of radioactivity associated with the filters is quantified on a TopCount scintillation counter. The radioactivity incorporated is plotted as a function of the inhibitor concentration. The data is fitted to a competitive inhibition kinetics model to get the Ki for the compound.
Src Inhibition Assay B: Spectrophotometric Assay
The ADP produced from ATP by the human recombinant Src kinase-catalyzed phosphorylation of poly Glu-Tyr substrate is quantified using a coupled enzyme assay (Fox et al (1998) Protein Sci 7, 2249). In this assay one molecule of NADH is oxidised to NAD for every molecule of ADP produced in the kinase reaction. The disappearance of NADH is conveniently followed at 340 nm.
The following are the final concentrations of the assay components: 0.025 M HEPES, pH 7.6, 10 mM MgCl2, 2 mM DTT, 0.25 mg/ml poly Glu-Tyr, and 25 nM of recombinant human Src kinase. […]
In a typical assay, all the reaction components with the exception of ATP are pre-mixed and aliquoted into assay plate wells. […] The absorbance change at 340 nm with time, the rate of the reaction, is monitored on a molecular devices plate reader. […]

Assay [4] has as its target CDK-2/Cyclin A (Homo sapiens, UniProt P24941). Nature of the assay: Inhibition of CDK-2, standard coupled enzyme assay. As to conditions: 100 μM ATP, 100 μM peptide, 25 nM CDK-2/Cyclin A, 30° C. On the procedure:
Compounds were screened for their ability to inhibit CDK-2/Cyclin A using a standard coupled enzyme assay (Fox et al (1998) Protein Sci 7, 2249). Reactions were carried out in 100 mM HEPES pH 7.5, 10 mM MgCl2, 25 mM NaCl, 1 mM DTT and 1.5% DMSO. Final substrate concentrations in the assay were 100 μM ATP (Sigma chemicals) and 100 μM peptide (American Peptide, Sunnyvale, Calif.). Assays were carried out at 30° C. and 25 nM CDK-2/Cyclin A. Final concentrations of the components of the coupled enzyme system were 2.5 mM phosphoenolpyruvate, 350 μM NADH, 30 μg/ml pyruvate kinase and 10 μg/ml lactate dehydrogenase.
An assay stock buffer solution was prepared containing all of the reagents listed above, with the exception of CDK-2/Cyclin A, DTT and the test compound of interest. 56 μl of the test reaction was placed in a 384 well plate followed by addition of 1 μl of 2 mM DMSO stock containing the test compound (final compound concentration 30 μM). The plate was preincubated for ˜10 minutes at 30° C. and the reaction initiated by addition of 10 μl of enzyme (final concentration 25 nM). Rates of reaction were obtained using a BioRad Ultramark plate reader (Hercules, Calif.) over a 5 minute read time at 30° C. Ki values were determined according to standard methods.

SMILES strings stand for the structures.

PIM-1, sequence (P11309 whole entry): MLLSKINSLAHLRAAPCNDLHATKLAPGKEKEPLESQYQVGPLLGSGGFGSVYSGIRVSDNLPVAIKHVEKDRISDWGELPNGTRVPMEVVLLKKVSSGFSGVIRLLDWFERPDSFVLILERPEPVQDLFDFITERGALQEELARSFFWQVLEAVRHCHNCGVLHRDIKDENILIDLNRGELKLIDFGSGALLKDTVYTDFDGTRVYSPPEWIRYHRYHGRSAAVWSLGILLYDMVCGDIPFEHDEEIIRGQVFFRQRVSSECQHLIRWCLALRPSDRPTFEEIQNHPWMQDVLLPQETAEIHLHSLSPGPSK

As to `COc1ccc(-c2nnc3ccc(NC4CC4)nn23)cc1` [Compound I-24], in assay [1], the half-inhibitory concentration (IC50) was below 1000 nM.
In turn, `FC(F)(F)c1cccc(-c2nnc3ccc(NC4CC4)nn23)c1` [Compound I-18] returned an IC50 in assay [1] below 1000 nM. In assay [2], this compound registered a Ki below 2000 nM.
Compound `FC(F)(F)c1cccc(-c2nnc3ccc(NC4CCC4)nn23)c1` [Compound I-25] registered a half-maximal inhibitory concentration (IC50) in assay [1] below 1000 nM. Also, the Ki in assay [3] is below 5000 nM.
In assay [2], `COc1cccc(-c2nnc3ccc(NCC(N)=O)nn23)c1` [Compound I-39] registered a Ki below 2000 nM.
Take `FC(F)(F)c1cccc(-c2nnc3ccc(NC4CCCCC4)nn23)c1` [Compound I-26]: in assay [3], the Ki was below 5000 nM.
With `N#Cc1cccc(-c2nnc3ccc(NCC(N)=O)nn23)c1` [Compound I-40], the Ki in assay [2] was below 2000 nM.
Still for that read-out and setting: under `COc1ccc(Nc2nnc3ccc(OC)nn23)c(OC)c1` [Compound I-85] stands below 2000 nM; under `COc1ccccc1Nc1nnc2ccc(Sc3ccccc3)nn12` [Compound I-62], below 2000 nM.
In the case of `COc1ccc(-c2nnc3ccc(NCC(N)=O)nn23)cc1` [Compound I-38], the Ki in assay [2] was below 2000 nM.
For `COc1ccc2nnc(Nc3ccc(C#N)cc3)n2n1` [Compound I-73], the Ki in assay [4] was below 2000 nM.
Consider `COc1cccc(-c2nnc3ccc(NC4CC4)nn23)c1` [Compound I-28], for which, in assay [1], the IC50 was below 1000 nM. The Ki in assay [3] is below 5000 nM.
In turn, `Fc1ccc(-c2nnc3ccc(NC4CC4)nn23)cc1` [Compound I-21] returned an IC50 in assay [1] below 1000 nM. In addition, the Ki in assay [2] was below 2000 nM.
With `COc1ccc(Nc2nnc3ccc(OC)nn23)cc1` [Compound I-66], the Ki in assay [2] is below 2000 nM.
Compound `COc1ccc2nnc(Nc3cc(OC)c(OC)c(OC)c3)n2n1` [Compound I-86] returned a Ki in assay [2] below 2000 nM.
As for `Fc1cccc(-c2nnc3ccc(NC4CC4)nn23)c1` [Compound I-20], the IC50 in assay [1] is below 1000 nM.
As for `N#Cc1ccc(-c2nnc3ccc(NCC(N)=O)nn23)cc1` [Compound I-37], in assay [2], the inhibitory constant (Ki) was below 2000 nM.
Turning to `COc1ccccc1-c1nnc2ccc(NC3CC3)nn12` [Compound I-29], the Ki in assay [3] is below 5000 nM.
As for `COc1ccc2nnc(Nc3ccccc3OC)n2n1` [Compound I-68], the Ki in assay [4] was below 2000 nM.

Source of the values: patent publication US7268136B2, “Compositions useful as inhibitors of protein kinases” (Vertex Pharmaceuticals Incorporated, priority 2002, dated 2007).
